In patent US20190040025A1, “INDOLEAMINE 2,3-DIOXYGENASE INHIBITOR, PREPARATION METHOD THEREFOR, AND APPLICATION” (Jiangsu Hansoh Pharmaceutical Group Co., Ltd., priority 2016, published 2019):

Columns and labels:
[1] = target: T1, indoleamine 2,3-dioxygenase (IDO) in HeLa cells (Homo sapiens, UniProt P14902); assay: Cell model test for IDO activity inhibition (interferon γ induced HeLa cells); format: cell-based; conditions: interferon γ 50 ng/mL, 24 hours, read-out: Cytological Test IC50
T1 construct: Interferon γ induced the expression of IDO in HeLa cells; host or cells: HeLa cells induced with interferon γ
Procedure: Interferon γ induced the expression of IDO in HeLa cells. This model was used to test the inhibitory activity of compounds on indoleamine 2,3-dioxygenase (IDO). The culture medium of HeLa cells (ATCC) was phenol red-free RPMI-1640 containing 100 μM L-tryptophan. The stock solution of the test compound was prepared to 10 mM with dimethyl sulfoxide, and diluted with dimethyl sulfoxide to the highest concentration of the test during the experiment, then diluted in three-fold gradient, and generally diluted to 8 to 10 concentration points. Duplicate wells were set for each concentration point. The final concentration of DMSO was 0.5%, and internal reference compound was included in each experiment.
The procedure of the experiment was as follows: 20,000 HeLa cells (ATCC) per well were added on a 96-well culture plate and incubated overnight. After 24 hours, interferon γ (final concentration of 50 ng/mL) and different concentrations of the test compound and the internal reference compound were added to the incubated cells. After 24 hours, 140 μL of the supernatant/well was transferred to a new 96-well plate, and 10 μL of 6.1 N trichloroacetic acid was added to each well. The plate was incubated for 30 minutes at 50° C. to hydrolyze N-formyl-kynurenine to kynurenine. The reaction mixture was centrifuged at 2500 rpm for 10 minutes to remove the precipitate, and the supernatant (100 μL) was transferred to another new 96-well plate. 100 μL of 2% (W/V) p-(dimethylamino)benzaldehyde (p-DMBA)/glacial acetic acid solution was added to each well. The absorbance at 490 nm was read on a BioTek Synergy H1 microplate reader […].
The original data of the absorbance at 490 nm read on a microplate reader were analyzed. The inhibition of IDO enzyme activity was calculated at different concentrations of the test compound. The half-inhibitory concentration IC50 value of the compound was obtained by non-linear fitting analysis of inhibition percentage data by GraphPad Prism software.

[2] = target: T2, Human indoleamine 2,3-dioxygenase (IDO) (Homo sapiens, UniProt P14902); assay: Enzymatic test for IDO activity inhibition; format: biochemical; conditions: 40 nM IDO enzyme, 0.2 mM L-tryptophan, 60 minutes at 30° C.
T2 construct: purchased BPS Bioscience Inc
Procedure: Human indoleamine 2,3-dioxygenase (IDO) was purchased from BPS Bioscience Inc. The enzymatic reaction of idoleamine 2,3-dioxygenase (IDO) was performed in a 96-well plate with a reaction volume of 20 μL. The reaction conditions were: 40 nM IDO enzyme, 0.2 mM L-tryptophan, 50 mM KPB (pH 6.5) buffer, 20 mM sodium L-L-ascorbate, 10 μM methylene blue, 0.2 mg/mL catalase, different concentrations of compounds containing <1% dimethyl sulfoxide. After reacting for 60 minutes at 30° C., 5 μL of 30% (w/v) trichloroacetic acid (in 50 mM KPB buffer) weres added to each well. The plate was incubated for 30 minutes at 50° C. to hydrolyze N-formyl-kynurenine to kynurenine. 25 μL of 2% (w/v) p-(dimethylamino)benzaldehyde (p-DMBA)/glacial acetic acid solution were added to each well. The absorbance at 490 nm was read on a BioTek Synergy H1 microplate reader […].
The stock solution of the test compound was prepared to 10 mM with dimethyl sulfoxide, diluted with dimethyl sulfoxide to the highest concentration of the test during the experiment, then diluted in 1:3 gradient, and generally diluted to 8 to 10 concentration points. Duplicate wells were set for each concentration point, and one reference compound was included in each experiment. The original data of the absorbance at 490 nm read on a microplate reader were analyzed. The inhibition of IDO enzyme activity was calculated at different concentrations of the test compound. The half-inhibitory concentration IC50 value of the compound was obtained by non-linear fitting analysis of inhibition percentage data by GraphPad Prism software.

[3] = Pharmacokinetic (PK) analysis of rat plasma; format: in vivo; conditions: Sprague-Dawley, po, 20 mg/kg, SD rats, single gavage, 20 mg/10 mL/kg
Procedure: The pharmacokinetics test of the test compound was performed with Sprague Dawley (SD) rats (Shanghai Slac Laboratory Animal Co., LTD).
Mode of administration: Single gavage.
U Dosage: 20 mg/10 mL/kg.
Formulation prescription: 3% dimethylacetamide and 20% hydroxypropyl-3-cyclodextrin.
Sampling points: before administration and 15 minutes, 0.5, 1, 2, 4, 6, 8 and 24 hours after administration.
Plasma sampling and sample processing: • 1) 0.2 ml of intravenous blood was collected and placed in an EDTA-2K tube. The blood was centrifuged at 4° C. for 5 minutes at 6,000 rpm to separate the plasma, which was stored at −80° C. • 2) 160 μL of acetonitrile were added to 40 μL of plasma sample, standard, and internal reference. The mixture was shaken vertically for 3 minutes, and centrifuged at 4000 rpm for 10 minutes. 100 μL of the supernatant were taken, and then added with 100 μL of deionized water and mixed well. 100 μL of the resulting solution was taken for LC/MS/MS analysis. The instrument for plasma LC/MS/MS analysis was AB Sciex API 4000.
Liquid Chromatography Analysis: • Liquid chromatography conditions: Shimadzu LC-20AD pump • Chromatographic column: phenomenex Gemiu 5 μm C18 50×4.6 mm • Mobile phase: solution A was 0.1% formic acid solution, and solution B was acetonitrile • Flow rate: 0.8 mL/min • Elution time: 0-3.01 minutes and the eluent was as follows:
• Mass spectrometry analysis: setup conditions of mass spectrometer: positive ion electrospray ionization (ESI) mode. • Experimental results: the main parameters of pharmacokinetics were calculated by WinNonlin 6.1 and the experimental results are shown in the following table: […]

[4] = system: mouse rectal cancer cell line Colon26; assay: Anti-tumor effect in Colon26 tumor-bearing mouse model; format: in vivo, mouse (Balb/c); conditions: Colon26 tumor-bearing mice, 10 mg/kg, D12
Description: The present invention further used the Colon26 tumor-bearing mouse model to test the anti-tumor effect of the example compounds. The Colon26 tumor-bearing mouse model was the mouse rectal cancer cell line Colon26 purchased from Guangzhou Ginio Biological Technology Co., Ltd., and the culture medium used was RPMI1640 containing 10% fetal bovine serum. The mouse strain used for tumor-bearing was Balb/c purchased from Sino-British SIPPR/BK Lab Animal Co., Ltd. At the time of implanting, the Colon26 cells in logarithmic growth phase were collected and mixed to 10 million cells/ml. Each mouse was implanted subcutaneously with 100 μl of one million cells. When the tumor grew to about 100 cubic millimeters, animals were randomly divided into groups with 8 animals per group. Drug administration was started (D0).
Mode of administration: intragastric administration, twice a day.
Formulation prescription: 3% dimethylacetamide and 20% hydroxypropyl-β-cyclodextrin. • Administration period and tumor measurement: The administration period was 13 days. The tumor volume was measured, the mice were weighed, and the data were recorded, 3 times per week. The calculation formula of tumor volume (V) is: V=½a×b2 where a and b represent length and width, respectively. The calculation formula of T/C is: T/C (%)=100×ΔT/ΔC. Tumor inhibition rate (%)=1−T/C (%). • Experimental results: The antitumor effect of the compound of Example 15 in Colon26 tumor-bearing mouse model is shown in the following table.
Under the same experimental conditions, the dosage was adjusted. The anti-tumor effect of Example 15 and its optical isomers 18-(1) and 18-(2) in Colon26 tumor-bearing mouse model is shown in the following table: […]

T1 sequence (P14902 whole entry): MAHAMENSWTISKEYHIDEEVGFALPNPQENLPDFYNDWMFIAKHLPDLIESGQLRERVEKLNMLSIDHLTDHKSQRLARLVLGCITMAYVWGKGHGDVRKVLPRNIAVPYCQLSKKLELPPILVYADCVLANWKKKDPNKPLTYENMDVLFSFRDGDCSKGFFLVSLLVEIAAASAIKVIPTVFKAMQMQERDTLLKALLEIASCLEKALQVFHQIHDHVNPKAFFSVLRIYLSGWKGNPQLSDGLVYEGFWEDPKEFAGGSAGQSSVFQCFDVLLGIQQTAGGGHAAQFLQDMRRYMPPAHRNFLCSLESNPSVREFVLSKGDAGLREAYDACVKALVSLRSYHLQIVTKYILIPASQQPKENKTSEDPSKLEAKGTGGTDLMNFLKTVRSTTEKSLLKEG
T2 sequence (P14902 whole entry): as above

Structure (SMILES)	IC50 [1]	IC50 [2]	AUC(0-inf) [3]	Cmax [3]	Tmax [3]	half-life [3]	Tumor inhibition rate (%) D12 [4]
CCS(=O)(CCNc1nonc1/C(=N/O)Nc1ccc(F)c(Br)c1)=NC (centres unmarked) [Example 17, (Z)—N-(3-bromo-4-fluorophenyl)-N′-hydroxy-4-((2-(N-methylethylsulfonimidoyl)ethyl)amino)-1,2,5-oxadiazole-3-carboximidamide]	16 nM	75 nM					
CS(=O)(=O)N=S(C)(=O)CCNc1nonc1/C(=N/O)Nc1ccc(F)c(Br)c1 (centres unmarked) [Example 14, (Z)—N-(3-bromo-4-fluorophenyl)-N′-hydroxy-4-((2-(S-methyl-N-(methylsulfonyl)sulfonimidoyl)ethyl)amino)-1,2,5-oxadiazole-3-carboximidamide]	12 nM	38 nM	7540 ng·h/mL	1050 ng/mL	30 min	330 min	
NC(=O)C(=O)NCCNc1nonc1/C(=N/O)Nc1ccc(F)c(Br)c1 [Example 1, (Z)—N^1-(2-((4-(N-(3-bromo-4-fluorophenyl)-N′-hydroxycarbamimidoyl)-1,2,5-oxadiazol-3-yl)amino)ethyl)oxalamide]	15 nM	70 nM	8620 ng·h/mL	3680 ng/mL	30 min	162 min	
Cc1ccc(S(=O)(=O)N=S(C)(=O)NCCNc2nonc2C(=NO)Nc2ccc(F)c(Br)c2)cc1 (centres unmarked) [Example 13, (Z)—N-(3-bromo-4-fluorophenyl)-N′-hydroxy-4-{[2-({S-methyl-N-[(4-methylphenyl)sulfonyl]sulfonimidoyl}amino)ethyl]amino}-1,2,5-oxadiazole-3-carboximidamide]	47 nM	64 nM					
NS(=O)(=O)NC1CC(Nc2nonc2/C(=N/O)Nc2ccc(F)c(Br)c2)C1 (centres unmarked) [Example 11, (Z)—N-(3-bromo-4-fluorophenyl)-N′-hydroxy-4-((3-(sulfamoylamino)cyclobutyl)amino)-1,2,5-oxadiazole-3-carboximidamide]	38 nM	42 nM					
C[S@](=O)(CCNc1nonc1/C(=N/O)Nc1ccc(F)c(Br)c1)=NS(=O)(=O)C1CC1 [Example 18-②, (S,Z)—N-(3-bromo-4-fluorophenyl)-4-((2-(N-(cyclopropylsulfonyl)-S-methylsulfonimidoyl)ethyl)amino)-N′-hydroxy-1,2,5-oxadiazole-3-carboximidamide]	9 nM	24 nM	4610 ng·h/mL	2020 ng/mL	30 min	84 min	68.49%
CNC(=O)C(=O)NCCNc1nonc1/C(=N/O)Nc1ccc(F)c(Br)c1 [Example 2, (Z)—N^1-(2-((4-(N-(3-bromo-4-fluorophenyl)-N′-hydroxycarbamimidoyl)-1,2,5-oxadiazol-3-yl)amino)ethyl)-N^2-methyloxalamide]	18 nM	71 nM					
O=C(NO)C(=O)NCCNc1nonc1/C(=N/O)Nc1ccc(F)c(Br)c1 [Example 8, (Z)—N^1-(2-((4-(N-(3-bromo-4-fluorophenyl)-N′-hydroxycarbamimidoyl)-1,2,5-oxadiazol-3-yl)amino)ethyl)-N^2-hydroxyoxalamide]	33 nM	76 nM					
NS(=O)(=O)NC1CCC(Nc2nonc2/C(=N/O)Nc2ccc(F)c(Br)c2)CC1 (centres unmarked) [Example 10, (Z)—N-(3-bromo-4-fluorophenyl)-N′-hydroxy-4-((4-(sulfamoylamino)cyclohexyl)amino)-1,2,5-oxadiazole-3-carboximidamide]	37 nM	19 nM					
C[S@@](=O)(CCNc1nonc1/C(=N/O)Nc1ccc(F)c(Br)c1)=NS(=O)(=O)C1CC1 [Example 18-①, (R,Z)—N-(3-bromo-4-fluorophenyl)-4-((2-(N-(cyclopropylsulfonyl)-S-methylsulfonimidoyl)ethyl)amino)-N′-hydroxy-1,2,5-oxadiazole-3-carboximidamide]	11 nM	19 nM	7320 ng·h/mL	2770 ng/mL	30 min	122 min	72.54%
O=C(NCCNc1nonc1/C(=N/O)Nc1ccc(F)c(Br)c1)C(=O)NC1CC1 [Example 7, (Z)—N^1-(2-((4-(N-(3-bromo-4-fluorophenyl)-N′-hydroxycarbamimidoyl)-1,2,5-oxadiazol-3-yl)amino)ethyl)-N^2-cyclopropyloxalamide]	53 nM	53 nM					
CN=S(C)(=O)CCNc1nonc1/C(=N/O)Nc1ccc(F)c(Br)c1 (centres unmarked) [Example 16, (Z)—N-(3-bromo-4-fluorophenyl)-4-((2-(N,S-dimethylsulfonimidoyl)ethyl)amino)-N′-hydroxy-1,2,5-oxadiazole-3-carboximidamide]	19 nM	66 nM					
CCNC(=O)C(=O)NCCNc1nonc1/C(=N/O)Nc1ccc(F)c(Br)c1 [Example 3, (Z)—N^1-(2-((4-(N-(3-bromo-4-fluorophenyl)-N′-hydroxycarbamimidoyl)-1,2,5-oxadiazol-3-yl)amino)ethyl)-N^2-ethyloxalamide]	20 nM	56 nM					
